US20180043059A1, “3D Ti-6Al-4V Structures with Hydrogel Matrix” (priority 2016, published 2018)
Entries after “also recorded” stand apart in the source; their conditions may differ. Like-named read-outs stand apart in the source and are kept apart here.

Columns and labels:
HUVECs [1] = assay: Combinatorial dose of DFM and D(+) glucose, MTS viability, HUVECs; assay type: cell-based, Human; conditions: 5 mM glucose, 24 hours
Experimental: (§1) Cells that undergo hypoxia mimetic stress mediated by Hif-1α have been reported to increase their metabolic demands. To test how metabolic demands change in cells exposed to DFM, both HUVECs and MC3T3-E1 cells were exposed to 3.2 μM DFM, 5 mM D(+) glucose and a combination of 3.2 μM DFM+5 mM D(+) glucose for 24 hours. A negative control consisted of both cell types without treatment. The viability of cells was determined by MTS viability assay. The purpose of this approach is to determine whether D(+) glucose can be used as an additive in the hydrogel matrix to improve wound healing and help drive vascularization and osteogenesis process.

MC3T3-E1 cells [2] = assay: Combinatorial dose of DFM and D(+) glucose, MTS viability, MC3T3-E1; assay type: cell-based, mouse; conditions: 5 mM glucose, 24 hours
Experimental: as §1

[3] = system: MC3T3-E1 pre-osteoblast cells
MC3T3-E1 cells [4] = assay: Fluorescent microscopy of pre-osteoblasts grown in Ti-6Al-4V foam under DFM; assay type: cell-based, mouse; conditions: 3.2 μM DFM (low concentration), 21 days
Experimental: Pre-osteoblasts seeded on foam structures were cultured for 7 days to test for similar cell behavior as reported by Nune et al. Cells were seeded at 200,000 cells/well in a 12 well plate, 1 mL total media volume and then stained with Hoechst 33342 cell nuclei dye. A second experiment was performed once the appropriate concentration of DFM was selected. Pre-osteoblasts are seeded at the previously described concentration in the same conditions but exposed to 3.2 μM DFM. Proliferation is observed after 21 days exposure. A second stain is performed with Vybrant® CFDA SE Cell Tracer Kit to visually determine the viability of cells without disturbing the layer of cells grown in the foams. Because the scaffold is solid metal, light cannot be transmitted through it if fully dense. However, due to the foam nature of the scaffold, light may be transmitted though the medium and a visible image can be obtained if the metal section is thin enough. Despite the fact that a thin section makes fluorescent microscopy feasible, since the scaffold is 3D, focus is lost in the z axis and there is a lack of clarity for morphological details. Improvements on microscopy can be done by using Confocal Microscopy instead of Fluorescent Microscopy in order to view in more detail cellular morphology and microcapillary formation. […]

MC3T3-E1 cells [5] = assay: Alizarin Red S (ARS) mineralization assay; assay type: cell-based, mouse
From the text: Because it is expected that pre-osteoblasts differentiate into osteoblasts under a hypoxic condition, cells should mineralize calcium in the ECM. The study of mineralization of ECM can be viewed as a measure or potential for bone formation. In this regard, Alizarin Red Assay (ARS) (Sigma-Aldrich) is used qualitatively and quantitatively to indicate the presence of calcium in the matrix. […] The negative control for this experiment is cells grown in 3D printed foams in complete media with no added glutamate. After incubation, the samples are washed carefully with PBS without disturbing the cell layer and fixed with 4% paraformaldehyde for 30 minutes. The 3D foam structures were then stained with alizarin red (pH˜4.1) in the dark and at room temperature for 30 minutes. Samples are qualitatively studied via light microscope after rinsing with PBS. The calcium nodules should appear red. To conduct quantitative analysis, 10% cetyl pyridinium chloride will be added to remove the alizarin red stain. The absorbance of the solution is measured at 570 nm OD with a spectrophotometric microplate reader.

HUVECs [6] = conditions: cited from earlier work
HUVECs [7] = assay: Total protein content (Bradford); assay type: cell-based, Human; conditions: endothelial cells exposed to DFM
Experimental: Cells are grown for 6 h, 24 h and 48 h in the presence of DFM at the previously specified 1:5 dilutions. After the desired time periods they are washed with cold 1×PBS and lysed with Radioimmunoprecipitation (RIPA) protein lysis buffer (0.2% Triton X-100+protease inhibitor cocktail) for 30 min in an ice bath. The total protein content in the cells is estimated using the Bradford spectrophotometric protein assay. Briefly, 10 μL of the cell lysate will be mixed with 100 μL of Bradford Reagent (Sigma) and re-suspended to homogenize the solution on a 96 well plate. The absorbance will be measured at 595 nm. A standard plot of absorbance as a function of bovine serum albumin (BSA) concentration will be obtained to determine the concentration value of the experimental and control samples.

Hif-1α = assay: Western blot analysis of Hif-1α in HUVECs exposed to DFM; assay type: cell-based, Human
Experimental: To further quantify the expression of specific proteins, a western blot analysis is performed for Hif-1α and VEGF165. The western blot analysis was made using the cell lysate previously described. A Sodium Dodecyl Sulfate-Polyacrylamide Gel Electrophoresis (SDS-PAGE) was made (7.5% acrylamide for Hif-1α (93 kDa) and 12% acrylamide for VEGF165 (38 kDa)). The separated proteins are then transferred to a PVDF membrane. The Hif-1α antibody at a 1:1,000 dilution in 1% BSA in 1×TBST buffer was incubated for one hour at room temperature, followed by three 10 min washes with TBST. A secondary anti-rabbit IgG HRP conjugated antibody was incubated for 30 minutes at room temperature, followed also by subsequent washes with TB ST.

MC3T3-E1 cells [8] = system: MC3T3-E1 cells
HUVECs [9] = assay: Induction of angiogenesis (capillary formation) in Matrigel and in foams with gel; assay type: cell-based, Human
Experimental: It has been previously reported that MC3T3-E1 pre-osteoblast cells undergo differentiation and proliferation when grown in porous foams in glutamine containing media. It has been extensively reported that endothelial cells are able to form capillaries in gels when exposed to DFM [28]. In this experiment, a live angiogenesis monitoring experiment is performed in order to analyze capillarity maturation and cell survival. This analysis is achieved by staining HUVECs with PHK26 Red Fluorescent Dye (Sigma) and MC3T3-E1 cells with PKH67 Green fluorescent dye (Sigma). Both dyes stain cell membranes in an unspecific way, while maintaining cellular viability for an extended period of time. MC3T3-E1 cells are grown in foams as described above, but under hypoxic conditions (3.2 μM DFM). The Ti-6Al-4V foams are pre-incubated with pre-osteoblasts for a total of 7 days, with a negative hypoxia control being cells without any DFM. The cells grown on the foams and gel are monitored throughout the duration of this experiment. The foams are removed from the wells and placed in a 12 well plate and Matrigel® (Corning Life Sciences) will be added until the foam is completely covered. In order to observe microcapillarity formation upon exposure of HUVECs to DFM, the manufacturer specifications are followed. Briefly, Matrigel® is thawed according to specifications (4° C. overnight) and added to a 24 well cell culture plate and allowed to gelate also according to specifications (30-60 minutes at 37° C.). […] The cell suspension is incubated at 37° C., 5% CO2 for 16 to 18 hours on the Matrigel coated plate for 16-18 hours. The formation of microcapillaries is measured by confocal microscopy.

O=C[C@H](O)[C@@H](O)[C@H](O)[C@H](O)CO [D(+) glucose]
viability response to additional D(+) glucose (HUVECs [1]; compared with MC3T3-E1, listed as D(+) Glucose): Augments Viability Faster | viability response to additional D(+) glucose (HUVECs [1]; compared with MC3T3-E1, listed as glucose): more positive response | viability response to additional D(+) glucose (MC3T3-E1 cells [2]): not

CoCl2
MTS metabolism [3]: greatly increases | cellular metabolism (MTS) across drug concentrations [3]: almost no variation in cellular metabolism | viability at lower concentrations (summary) [3]: E1 cells exposed to DFM. Viability increases

CC(=O)N(O)CCCCCNC(=O)CCC(=O)N(O)CCCCCNC(=O)CCC(=O)N(O)CCCCCN.CS(=O)(=O)O [DFM, Deferoxamine Mesylate]
proliferation of pre-osteoblasts in the foam (Hoechst 33342 staining) (MC3T3-E1 cells [4]): proliferating | cellular production of hydroxyapatite, cells grown in foams (MC3T3-E1 cells [5]; Ti-6Al-4V foams, 3.2 μM DFM): enhanced; also recorded: DFM enhances the cellular production of | synthesis levels of hydroxyapatite versus control (MC3T3-E1 cells [5]; foams, 3.2 μM DFM, 14 days): increase on par in both settings | amount of cellular hydroxyapatite versus control (MC3T3-E1 cells [5]; foams, 3.2 μM DFM, 21 days, FIG. 6): dramatically increases | amount of hydroxyapatite versus control (MC3T3-E1 cells [5]; foams, 3.2 μM DFM, initially (7 days)): comparatively similar amounts of hydroxyapatite to control cells | production of mineralized calcium / hydroxyapatite, cells grown in plates (MC3T3-E1 cells [5]; plates): increases the production of mineralized calcium; also recorded: DFM enhances the cellular production of | expression of mineralized calcium (ARS) (MC3T3-E1 cells [5]; plates, 640 nM DFM, 21 days, FIG. 5): highest expression of mineralized calcium | expression of hydroxyapatite compared to control cells (MC3T3-E1 cells [5]; plates, 640 nM DFM, every instance (7, 14, 21 days)): always in greater amount | DFM concentration that can stimulate a survival response (HUVECs [6]; previous reports): ~10 µM | DFM concentration at which HUVECs undergo angiogenesis (HUVECs [6]; previously reported): approximately 10 μM | cellular metabolism (MTS) across drug concentrations ([3]; 24 hours exposure): almost no variation in cellular metabolism | MTS metabolism ([3]; exposure equal or longer than 72 hours): greatly increases | viability at lower concentrations (summary) ([3]; lower concentrations): E1 cells exposed to DFM. Viability increases | cellular viability (summary) ([3]; mouse): Cellular viability does not decrease in MC3T3- | levels of total protein synthesized (HUVECs [7]): No obvious changes | total intracellular Hif-1α bands (Hif-1α; 48 hours exposure): still producing definitive bands | Hif-1α levels with increasing DFM concentration (summary) (Hif-1α; HUVECs): Hif-1α levels increased with increasing DFM | Hif-1α expression (Hif-1α; high doses (2 mM) vs normoxia): notably increase | cellular proliferation (cell count) (MC3T3-E1 cells [8]; 24 hour exposure, remaining dilutions, compared to unexposed control): constant cell population numbers, with a slight decrease in numbers | cellular proliferation (cell count) (MC3T3-E1 cells [8]; lowest concentrations (3.2 μM and 640 nM)): observable increase in proliferation | maintenance of capillary structure (HUVECs [9]; HUVECs exposed to 2 mM DFM in Matrigel): maintain their structure for an extended period of time | capillary formation in Matrigel (HUVECs [9]; HUVECs exposed to 2 mM DFM, 18 hour period, not apparent in control without DFM): readily formed capillaries; also recorded: HUVECs readily undergo migration to form | vascular structure formation in foams with gel (HUVECs [9]; Ti-6Al-4V foam + Matrigel with pre-incubated MC3T3-E1, HUVECs treated with 2 mM DFM, FIG. 7): HUVECs readily undergo migration to form
